Reference: article PMC12584634, “Carglumic acid and mesalazine as potential anti-mycobacterial agents: a spectroscopic study for repurposing drugs against Mycobacterium tuberculosis targeting its essential enzyme ThyX” (Microbiology Spectrum, 2025)

Target: ThyX (Rv2754c), flavin-dependent thymidylate synthase (Mycobacterium tuberculosis, UniProt P9WG57)
Assay: intrinsic fluorescence quenching, modified Stern-Volmer
Type: binding
Details: 303 K, 5 µM protein, n ~1, double-log
Source text: intrinsic fluorescence quenching, modified Stern-Volmer on ThyX (Rv2754c), flavin-dependent thymidylate synthase

ThyX (Rv2754c), flavin-dependent thymidylate synthase, sequence (P9WG57 whole entry, looked up): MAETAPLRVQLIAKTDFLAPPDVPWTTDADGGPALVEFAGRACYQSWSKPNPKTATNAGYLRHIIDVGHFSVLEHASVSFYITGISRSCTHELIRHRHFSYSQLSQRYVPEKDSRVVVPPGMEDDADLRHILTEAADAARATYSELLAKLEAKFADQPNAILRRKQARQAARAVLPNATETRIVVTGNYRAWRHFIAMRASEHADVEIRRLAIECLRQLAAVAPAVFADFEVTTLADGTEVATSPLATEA

Structure (SMILES)	Ka (× 10^6 mol^-1) (positive control, text prints unit as M^−1s^−1)	Ka (× 10^6 mol^-1) (PBS pH 7.4, excitation 280 nm)
Nc1ccc(C(=O)O)c(O)c1 [para-amino salicylic acid, reference compound]	3.44 × 10^6 mol^−1	–
Nc1ccc(O)c(C(=O)O)c1 [mesalazine]	–	4.73 × 10^6 mol^−1
NC(=O)N[C@@H](CCC(=O)O)C(=O)O [carglumic acid]	–	4.28 × 10^6 mol^−1
